Legend:
EphA2 receptor [1] = target: T1, EphA2 receptor (Homo sapiens, UniProt P29317); assay: EphA2 phosphorylation and internalization in MDA-MB-231 cells; format: cell-based
EphA2 receptor [2] = target: T1, EphA2 receptor; assay: EphA2 phosphorylation in EphA2-overexpressing MDA-MB-231 cells; format: cell-based

T1 sequence (P29317 24-976): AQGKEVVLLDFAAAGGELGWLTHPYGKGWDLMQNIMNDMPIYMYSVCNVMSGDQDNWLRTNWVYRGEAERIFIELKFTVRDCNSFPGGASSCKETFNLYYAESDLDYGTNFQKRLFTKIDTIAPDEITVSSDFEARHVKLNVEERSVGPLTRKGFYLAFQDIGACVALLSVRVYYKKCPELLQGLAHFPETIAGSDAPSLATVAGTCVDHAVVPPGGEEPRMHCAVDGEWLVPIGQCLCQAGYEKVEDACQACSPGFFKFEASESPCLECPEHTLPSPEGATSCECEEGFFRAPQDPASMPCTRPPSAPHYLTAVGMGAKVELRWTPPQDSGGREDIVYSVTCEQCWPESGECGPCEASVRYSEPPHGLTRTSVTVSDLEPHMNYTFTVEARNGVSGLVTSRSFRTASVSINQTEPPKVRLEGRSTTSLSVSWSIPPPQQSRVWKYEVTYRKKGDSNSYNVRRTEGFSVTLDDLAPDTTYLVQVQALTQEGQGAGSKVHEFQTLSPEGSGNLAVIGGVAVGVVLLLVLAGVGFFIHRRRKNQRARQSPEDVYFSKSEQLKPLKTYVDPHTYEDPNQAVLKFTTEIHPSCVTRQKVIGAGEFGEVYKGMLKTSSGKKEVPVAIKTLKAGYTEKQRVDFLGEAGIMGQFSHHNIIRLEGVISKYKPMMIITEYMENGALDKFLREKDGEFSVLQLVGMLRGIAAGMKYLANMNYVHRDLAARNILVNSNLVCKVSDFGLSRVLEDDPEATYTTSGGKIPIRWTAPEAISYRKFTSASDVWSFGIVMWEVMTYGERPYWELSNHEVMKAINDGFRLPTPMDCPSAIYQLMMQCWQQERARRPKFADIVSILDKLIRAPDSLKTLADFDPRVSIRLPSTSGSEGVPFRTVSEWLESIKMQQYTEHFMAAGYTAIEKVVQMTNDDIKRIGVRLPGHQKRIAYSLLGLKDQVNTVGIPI

SMILES	EphA2 phosphorylation and internalization in MDA-MB-231 cells (positive control, (EphA2 receptor [1])	EphA2 phosphorylation in EphA2-overexpressing MDA-MB-231 cells; receptor interna (EphA2 receptor [2])
COc1cc2nc(N3CCN(C(=O)C4COc5ccccc5O4)CC3)nc(N)c2cc1OC (centres unmarked) [Doxazosin, 2-[4-(2,3-Dihydro-1,4-benzodioxine-2-carbonyl)piperazin-1-yl]-6,7-dimethoxyquinazolin-4-amine]	~ 50 μM	
COc1cc2nc(N3CCN(C(=O)CCCCCCCCCCC(=O)N4CCN(c5nc(N)c6cc(OC)c(OC)cc6n5)CC4)CC3)nc(N)c2cc1OC [compound 27, 1,12-bis(4-(4-amino-6,7-dimethoxyquinazolin-2-yl)piperazin-1-yl)dodecane-1,12-dione]		~ 0.4 μM
